Results published in EP4711364A1, “FUSED PYRROLE RING OR FUSED PYRIDINE RING COMPOUND” (Pharmaengine, Inc., priority 2023, dated 2024).

How the values were obtained:
[1] = biological target: T1, NanoLuc-PKMYT1 fusion construct (Homo sapiens, UniProt Q99640); experiment: cell-based; format: binding; conditions: HEK293 cell lines transiently expressing NanoLuc-PKMYT1; NanoBRET tracer; test compounds for 2 hours
T1 construct: expressed in transfected cells; host or cells: HEK293 (transient expression)
T1 sequence (Q99640 1-499): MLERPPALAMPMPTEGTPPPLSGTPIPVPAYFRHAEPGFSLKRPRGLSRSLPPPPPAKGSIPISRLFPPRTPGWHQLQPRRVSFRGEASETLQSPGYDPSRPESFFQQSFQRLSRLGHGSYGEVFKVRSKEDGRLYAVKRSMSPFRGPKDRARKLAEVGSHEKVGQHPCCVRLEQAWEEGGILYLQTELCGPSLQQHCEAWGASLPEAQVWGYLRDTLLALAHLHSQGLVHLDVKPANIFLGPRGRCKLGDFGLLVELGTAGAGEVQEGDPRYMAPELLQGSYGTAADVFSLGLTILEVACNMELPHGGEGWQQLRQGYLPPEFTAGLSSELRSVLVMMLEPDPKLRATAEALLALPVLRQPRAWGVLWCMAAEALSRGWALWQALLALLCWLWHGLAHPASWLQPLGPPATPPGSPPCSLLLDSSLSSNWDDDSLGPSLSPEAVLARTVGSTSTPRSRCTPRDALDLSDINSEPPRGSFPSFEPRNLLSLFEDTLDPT
Method: HEK293 cell lines transiently expressing the NanoLuc-PKMYT1 fusion construct were seeded into wells of a 3 84-well plate. Cells were pretreated with NanoBRET tracer, then treated with test compounds for 2 hours. BRET signals were measured on an Envision multimode plate reader at 450 nm and 610 nm. IC50 values were calculated, and IC50 curves were plotted using GraphPad Prism with a four-parameter nonlinear regression model.

HCC1569 = experiment: Cell Proliferation Assay (CellTiter-Glo); format: cell-based; conditions: Homo sapiens, 168 h, CCNE1-amplified breast cancer cell line HCC1569, incubated for 7 days
Method: The sensitivity of cancer cell lines with normal or elevated CCNE1 levels to test compounds was evaluated in a cell proliferation assay. Cell lines were maintained in ATCC-recommended culture media supplemented with 10% FBS and 1% penicillin/streptomycin in a humidified 5% CO2 incubator. All test compounds were stored as 20 mM DMSO stock solutions.
On Day 0, CCNE1-wild type (wt) and CCNE1-amplified (amp) cells were seeded into 384-well plates and incubated for 16 to 24 hours in a humidified 5% CO2 incubator. On Day 1, test compounds were dispensed into wells at specified concentrations (n=2), with DMSO volume normalized to the highest concentration. Plates with compound-treated cells were incubated for 7 days in a humidified 5% CO2 incubator.
On Day 7, plates were removed from the incubator and equilibrated to room temperature. Relative inhibition was assessed by adding CellTiter-Glo reagent. Data were plotted as a percentage of the DMSO control for each compound in each cell line. IC50 values were calculated using a four-parameter nonlinear regression model (GraphPad Prism). Table 1: Cell viability data

SMILES	IC50 [1] [nM]	IC50 (HCC1569) [nM]
Cc1ccc2[nH]ncc2c1-n1c(N)c2c3c(c(C)c(C)nc31)C=CNC2=O [Compound 126]	5.5	666
Cc1nc2c3c(c1C)C=CNC(=O)c3c(N)n2-c1c(Cl)cc(F)c2[nH]ncc12 [Compound 136]	21.6	> 1000
Cc1nc2c3c(c1C)C=CNC(=O)c3c(N)n2-c1c(Cl)c(F)cc2[nH]ncc12 [Compound 137]	22.5	566
Cc1nc2c3c(c1C)C=CNC(=O)c3c(N)n2-c1c(C)c(F)cc2[nH]ncc12 [Compound 138]	19.8	> 1000
Cc1cc2c(C(N)=O)c(N)n(-c3c(C)ccc(O)c3C)c2nc1C [Rp6306, reference compound]	–	18
